Measurements published in ChEMBL document CHEMBL1137719, “Receptor-based 3D-QSAR studies of checkpoint Wee1 kinase inhibitors” (Eur J Med Chem, 2009).
“And” between values parts separate entries of the source, which are not always exact repeats. Equal entries are not always repeated.

target: Wee1-like protein kinase (Homo sapiens, UniProt P30291)
Sequence (P30291 whole entry): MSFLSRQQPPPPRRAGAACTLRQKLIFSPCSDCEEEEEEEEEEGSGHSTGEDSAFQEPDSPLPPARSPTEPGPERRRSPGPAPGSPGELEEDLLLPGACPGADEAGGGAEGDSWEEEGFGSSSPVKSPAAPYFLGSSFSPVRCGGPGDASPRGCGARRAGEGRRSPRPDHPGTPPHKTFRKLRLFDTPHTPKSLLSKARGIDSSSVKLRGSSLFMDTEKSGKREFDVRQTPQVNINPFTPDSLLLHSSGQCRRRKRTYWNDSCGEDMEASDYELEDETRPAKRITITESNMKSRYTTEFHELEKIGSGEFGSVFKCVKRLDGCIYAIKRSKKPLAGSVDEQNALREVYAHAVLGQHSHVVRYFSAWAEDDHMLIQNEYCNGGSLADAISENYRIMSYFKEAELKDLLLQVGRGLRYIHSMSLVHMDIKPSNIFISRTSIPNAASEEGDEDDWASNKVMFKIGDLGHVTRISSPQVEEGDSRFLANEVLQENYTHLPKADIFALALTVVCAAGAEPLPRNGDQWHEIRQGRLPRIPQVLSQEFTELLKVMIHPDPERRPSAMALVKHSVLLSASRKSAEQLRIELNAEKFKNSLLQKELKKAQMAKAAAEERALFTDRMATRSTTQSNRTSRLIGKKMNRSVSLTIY

Structure (SMILES) | IC50
O=C1NC(=O)c2c1c(I)cc1[nH]c3ccc(O)cc3c21 | 2340 nM
NN1C(=O)c2c(-c3ccccc3)cc3[nH]c4ccc(O)cc4c3c2C1=O | 3980 nM
O=C1NC(=O)c2c1c(-c1cccc(O)c1Cl)cc1[nH]c3ccc(O)cc3c21 | 28.2 nM
CSc1ccc(-c2cc3[nH]c4ccc(O)cc4c3c3c2C(=O)NC3=O)cc1 | 31600 nM
CC(=O)c1cccc(-c2cc3[nH]c4ccc(O)cc4c3c3c2C(=O)NC3=O)c1 | 4370 nM
O=C1NC(=O)c2c1c(-c1ccccc1)c(-c1ccccc1)c1[nH]c3ccc(O)cc3c21 | 2340 nM
O=C1NC(=O)c2c1cc(-c1ccccc1)c1[nH]c3ccc(O)cc3c21 | 4070 nM
O=C1NC(=O)c2c1c(-c1ccccc1Cl)cc1c2c2cc(O)c(CCCCn3cccc3)cc2n1CCO | 24 nM
O=C1NC(=O)c2c1c(-c1ccccc1Cl)cc1c2c2c(n1CCO)=CC(OCCCn1cccc1)C(O)(O)C=2 (stereo not given) | 18 nM and 18.2 nM
O=C1NC(=O)c2c1c(-c1ccccc1Cl)cc1c2c2cc(O)c(OCCCn3cccc3)cc2n1CCO | 24 nM
Cn1c2cc(SCCCn3cccc3)c(O)cc2c2c3c(c(-c4ccccc4Cl)cc21)C(=O)NC3=O | 20 nM
O=C1NC(=O)c2c1ccc1c2c2cc(O)ccc2n1CCO | 25.1 nM and 25 nM
Cn1c2cc([S+]([O-])CCCn3cccc3)c(O)cc2c2c3c(c(-c4ccccc4Cl)cc21)C(=O)NC3=O (stereo not given) | 33 nM and 33.1 nM
O=C1NC(=O)c2c1c(-c1c(Cl)cccc1Cl)cc1c2c2cc(O)ccc2n1CCCC(=O)N1CCOCC1 | 64.6 nM and 64 nM
O=C1NC(=O)c2c1c(-c1c(Cl)cccc1Cl)cc1c2c2cc(O)ccc2n1CCCC(=O)n1ccnc1 | 58.9 nM and 59 nM
O=C1NC(=O)c2c1ccc1c2c2cc(O)ccc2n1CCCNc1ccccc1 | 93.3 nM and 93 nM
CN(C)CCNC(=O)CCn1c2ccc(O)cc2c2c3c(ccc21)C(=O)NC3=O | 170 nM
CN1CCN(CCCn2c3ccc(O)cc3c3c4c(ccc32)C(=O)NC4=O)CC1 | 302 nM and 300 nM
NC(=O)CCn1c2ccc(O)cc2c2c3c(ccc21)C(=O)NC3=O | 20.9 nM and 21 nM
O=C1NC(=O)c2c1c(-c1ccc(-c3ccccc3)cc1)cc1[nH]c3ccc(O)cc3c21 | 40000 nM
O=C1NC(=O)c2c1c(-c1ccccc1Cl)cc1[nH]c3cc(OCCCn4cccc4)c(O)cc3c21 | 36 nM and 36.3 nM
O=C1NC(=O)c2c1c(-c1ccccc1Cl)cc1c2c2cc(O)ccc2n1CCC(=O)N1CCOCC1 | 64.6 nM and 64 nM
O=C1NC(=O)c2c1c(-c1c(Cl)cccc1Cl)cc1c2c2cc(O)ccc2n1CCC(=O)N1CCOCC1 | 110 nM

Structure (SMILES) | IC50
O=C1NC(=O)c2c1c(-c1ccccc1Cl)cc1c2c2cc(O)ccc2n1CC[S+]([O-])n1ccnn1 (stereo not given) | 9 nM and 8.91 nM
O=C1NC(=O)c2c1c(-c1c(Cl)cccc1Cl)cc1c2c2cc(O)ccc2n1CCC(=O)n1ccnc1 | 120 nM
Nc1cc(-c2cc3[nH]c4ccc(O)cc4c3c3c2C(=O)NC3=O)ccc1Cl | 24 nM
O=C1NC(=O)c2c1c(-c1ccccc1Cl)cc1c2c2cc(O)ccc2n1CCS(=O)(=O)n1ccnn1 | 19 nM and 19.1 nM
O=C1NC(=O)c2c1ccc1c2c2cc(O)ccc2n1CCC(=O)n1ccnc1 | 229 nM and 230 nM
O=C1NC(=O)c2c1ccc1c2c2cc(O)ccc2n1CCC(=O)N1CCOCC1 | 140 nM and 141 nM
CN(C)CCCn1c2ccc(O)cc2c2c3c(ccc21)C(=O)NC3=O | 360 nM and 363 nM
Cn1c2cc(CCCCn3cccc3)c(O)cc2c2c3c(c(-c4ccccc4Cl)cc21)C(=O)NC3=O | 36 nM and 36.3 nM
Cn1c2ccc(O)cc2c2c3c(ccc21)C(=O)NC3=O | 141 nM and 140 nM
O=C1NC(=O)c2c1ccc1c2c2cc(O)ccc2n1CCCO | 200 nM
Cn1c2cc(S(=O)(=O)NCCn3cccc3)c(O)cc2c2c3c(c(-c4ccccc4Cl)cc21)C(=O)NC3=O | 46 nM and 45.7 nM
O=C1NC(=O)c2c1c(-c1ccccc1Cl)cc1[nH]c3cc(CCCCn4cccc4)c(O)cc3c21 | 50 nM and 50.1 nM
CNCCCn1c2ccc(O)cc2c2c3c(ccc21)C(=O)NC3=O | 282 nM and 280 nM
O=C1NC(=O)c2c1ccc1c2c2cc(O)ccc2n1CCCC(=O)N1CCOCC1 | 288 nM and 290 nM
CN(C)CCn1c2ccc(O)cc2c2c3c(ccc21)C(=O)NC3=O | 200 nM
O=C(O)CCn1c2ccc(O)cc2c2c3c(ccc21)C(=O)NC3=O | 22.9 nM and 23 nM
O=C1NC(=O)c2c1c(-c1ccccc1Cl)cc1c2c2cc(O)ccc2n1CCC(=O)n1ccnc1 | 91.2 nM and 92 nM
Cn1c2cc(S(=O)(=O)CCCn3cccc3)c(O)cc2c2c3c(c(-c4ccccc4Cl)cc21)C(=O)NC3=O | 160 nM and 158 nM
O=C1NC(=O)c2c1ccc1c2c2cc(O)ccc2n1CCCC(=O)n1ccnc1 | 110 nM
O=C1NC(=O)c2c1c(-c1ccccc1Cl)cc1c2c2cc(O)ccc2n1CCSn1ccnn1 | 24 nM
CS(=O)(=O)c1ccc(-c2cc3[nH]c4ccc(O)cc4c3c3c2C(=O)NC3=O)cc1 | 1120 nM and 1100 nM
O=C1NC(=O)c2c1c(-c1ccccc1Cl)cc1c2c2cc(O)ccc2n1CCCC(=O)n1ccnc1 | 54 nM and 53.7 nM
